IC50 and GI50 data for 19 molecules are collected here from patent US20170107207A1, “AMINOPYRAZOLONE DERIVATIVE” (DAIICHI SANKYO COMPANY, LIMITED, priority 2014, published 2017).

One test concerns the target T1, TIP48/TIP49 complex (Homo sapiens, UniProt Q9Y230+Q9Y265).
T1 construct: made in house; host or cells: E. coli
The test can be described thus: ATPase assay of TIP48/TIP49 complex (ADP-Glo). The conditions noted are these: concentration at which the ATPase activity was inhibited by 50%. Format: biochemical. A digest of the protocol:
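Compound was tested over 10 four-fold concentrations, 200 μM down to 0.0007 μM at 2% DMSO, against E. coli-derived human rTIP48/rTIP49 for 1.5 h at room temperature, pH 7.5 with ATP. ATP hydrolysis was read as ADP-Glo luminescence, normalised to complex-only and no-complex wells, then fitted to dose-response curves.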

Test [1] has as its system human lymphoma cell line RAMOS cells. As to the kind of experiment: Cell growth inhibition test using RAMOS cell, MTT assay. Format: cell-based. The conditions noted are these: 50% growth inhibition concentration. As to the method: A cell growth inhibition test was carried out by treating human lymphoma cell line RAMOS cells with a test compound for a given period and then counting the number of viable cells by MTT assay or CellTiter-Glo Luminescent Cell Viability Assay (manufactured by Promega Corp.; hereinafter, referred to as ATP assay).
RAMOS cells were suspended in a medium (RPMI1640 medium containing 10% fetal bovine serum). The cell suspension was inoculated at 5000 cells/150 μL/well to a 96-well multiwell plate. The test compound was dissolved in DMSO, and this solution was diluted with medium to prepare a sample solution (DMSO concentration: 1% or lower). Subsequently, test compound-free medium or the sample solution was added thereto at 50 μL/well. The MTT assay was carried out at the day of addition of the sample solution or the DMSO dilution to the cells and after culture at 37° C. for 3 days under 5% CO2 of the cells supplemented with the sample solution or the medium. The MTT assay was carried out as follows.
A 5 mg/mL solution of MTT (3-(4,5-dimethylthiazol-2-yl)-2,5-diphenyltetrazolium bromide, Sigma-Aldrich Corp., M-2128) was prepared using a phosphate buffered solution (Dulbecco's phosphate-buffered saline). This MTT solution was added at 20 μL/well to the plate. Then, the plate was incubated at 37° C. for 4 hours under 5% CO2. The plate was centrifuged at 1200 rpm for 5 minutes, and then, the culture supernatant was removed by suction using a dispenser. DMSO was added thereto at 150 μL/well to dissolve formed formazan. […] from each well was rendered uniform by the stirring of the plate using a plate mixer. The absorbance of each well was measured using a plate reader under conditions involving OD of 540 nm and reference of 660 nm.
The number of viable cells and absorbance (hereinafter, referred to as an OD value) have been confirmed to correlate with each other. Therefore, the rate of cell growth was calculated according to the following expression: Rate of cell growth (T/C %) of a test compound-supplemented well=100×[(B−C)/(A−C)] wherein A represents the OD value (final culture date) of a test compound-free well; B represents the OD value (final culture date) of a test compound-containing well; and C represents the OD value (day of cell inoculation) of a well at the start of contact of the cells with the test compound.
T/C % at each concentration of the test compound was determined. The concentration at which the test compound offered 50% growth rate was calculated as a 50% growth inhibition concentration (GI50) value from the growth rates at two points interpolating 50% and the concentrations, and is shown in Table 56.

Test [2] shares this test system. The test can be described thus: Cell growth inhibition test using RAMOS cell, ATP assay (CellTiter-Glo). Format: cell-based. The conditions noted are these: Homo sapiens, Ramos, 72 h, cultured 3 days, 50% growth inhibition concentration. The method, boiled down:
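RAMOS cells seeded at 4000 cells/well with compound and cultured 3 days at 37° C, 5% CO2; viability by CellTiter-Glo luminescence. Growth rate T/C % = 100×[(B−C)/(A−C)] using day-0 and final readings; GI50 interpolated from the two concentrations bracketing 50% growth.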

T1 sequence (Q9Y230 whole entry): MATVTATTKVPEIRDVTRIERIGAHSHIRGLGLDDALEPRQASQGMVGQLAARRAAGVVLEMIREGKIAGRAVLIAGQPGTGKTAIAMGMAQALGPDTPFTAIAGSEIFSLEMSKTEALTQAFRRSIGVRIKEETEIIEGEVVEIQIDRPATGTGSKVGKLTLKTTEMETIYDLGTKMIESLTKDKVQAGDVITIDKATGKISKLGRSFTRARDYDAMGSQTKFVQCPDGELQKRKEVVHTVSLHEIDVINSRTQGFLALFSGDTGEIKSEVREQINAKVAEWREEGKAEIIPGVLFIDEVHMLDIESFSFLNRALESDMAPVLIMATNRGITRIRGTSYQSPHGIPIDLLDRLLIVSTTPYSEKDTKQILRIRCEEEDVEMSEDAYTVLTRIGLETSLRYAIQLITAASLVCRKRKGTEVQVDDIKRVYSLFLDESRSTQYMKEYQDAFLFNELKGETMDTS
T1 sequence (Q9Y265 whole entry): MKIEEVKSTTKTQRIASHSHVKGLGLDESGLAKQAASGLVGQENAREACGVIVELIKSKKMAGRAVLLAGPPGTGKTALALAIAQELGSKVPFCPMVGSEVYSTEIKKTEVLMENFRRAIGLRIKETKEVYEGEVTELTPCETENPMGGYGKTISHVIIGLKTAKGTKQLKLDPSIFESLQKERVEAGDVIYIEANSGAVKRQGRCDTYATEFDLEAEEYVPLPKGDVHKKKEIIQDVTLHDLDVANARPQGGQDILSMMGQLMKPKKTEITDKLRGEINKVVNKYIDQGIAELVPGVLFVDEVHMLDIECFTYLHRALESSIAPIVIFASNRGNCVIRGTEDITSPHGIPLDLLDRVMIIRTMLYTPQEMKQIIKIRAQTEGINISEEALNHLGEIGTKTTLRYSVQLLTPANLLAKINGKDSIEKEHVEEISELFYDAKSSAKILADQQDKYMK

As to `COc1ccc(Cl)cc1C(=O)NCC(C)(C)CC(=O)Nc1c(CN(C)CCO)n(C)n(-c2ccccc2)c1=O` [Example 8, 5-Chloro-N-(4-[(5-{[2-hydroxyethyl(methyl)amino]methyl}-1-methyl-3-oxo-2-phenyl-2,3-dihydro-1H-pyrazol-4-yl)amino]-2,2-dimethyl-4-oxobutyl)-2-methoxybenzamide], the IC50 against TIP48/TIP49 complex was found to be 96 nM. Besides, it took 170 nM to inhibit growth in test [1] by half (GI50).
The matching figures for `CCOc1ncc(Cl)cc1C(=O)NCC(C)(C)CC(=O)Nc1c(C)n(C)n(-c2cccc(C)n2)c1=O` [Example 153, 5-Chloro-N-(4-{[1,5-dimethyl-2-(6-methyl-2-pyridyl)-3-oxo-2,3-dihydro-1H-pyrazol-4-yl]amino}-2,2-dimethyl-4-oxobutyl)-2-ethoxypyridine-3-carboxamide]: 98 nM and 210 nM.
The matching figures for `COc1ccc(Cl)cc1NC(=O)CC(C)(C)CC(=O)Nc1c(C(C)C)n(C)n(-c2ccccc2)c1=O` [Example 128, N-(5-Chloro-2-methoxyphenyl)-N′-(5-isopropyl-1-methyl-3-oxo-2-phenyl-2,3-dihydro-1H-pyrazol-4-yl)-3,3-dimethylpentanediamide]: 190 nM and 590 nM.
The matching figures for `CCOc1ncc(Cl)cc1NC(=O)CC(C)(C)CC(=O)Nc1c(CCN(C)C)n(C)n(-c2ccccc2)c1=O` [Example 25, N-(5-Chloro-2-ethoxy-3-pyridyl)-N′-{5-[2-(dimethylamino)ethyl]-1-methyl-3-oxo-2-phenyl-2,3-dihydro-1H-pyrazol-4-yl}-3,3-dimethylpentanediamide]: 140 nM and 490 nM.
Regarding `CCOc1ccc(Cl)cc1C(=O)NCC(C)(C)CC(=O)Nc1c(C)n(C(C)C)n(-c2ccccn2)c1=O` [Example 156, 5-Chloro-2-ethoxy-N-(4-{[1-isopropyl-5-methyl-3-oxo-2-(2-pyridyl)pyrazol-4-yl]amino}-2,2-dimethyl-4-oxobutyl)benzamide], the IC50 on TIP48/TIP49 complex worked out at 48 nM. The molecule further came in with a GI50 in test [1] of 100 nM.
At TIP48/TIP49 complex, `CCOc1ncc(Cl)cc1C(=O)NCC(C)(C)CC(=O)Nc1c(C)n(CCN2CCC2)n(-c2ccccc2)c1=O` [Example 140, N-[4-({1-[2-(Azetidin-1-yl)ethyl]-5-methyl-3-oxo-2-phenyl-2,3-dihydro-1H-pyrazol-4-yl}amino)-2,2-dimethyl-4-oxobutyl]-5-chloro-2-ethoxypyridine-3-carboxamide] came in with an IC50 of 250 nM. In test [1], this molecule returned a GI50 of 240 nM.
For `CCOc1ccc(Cl)cc1NC(=O)CC(C)(C)CC(=O)Nc1c(CCN(C)C)n(C)n(-c2ccccc2)c1=O` [Example 23, N-(5-Chloro-2-ethoxyphenyl)-N′-{5-[2-(dimethylamino)ethyl]-1-methyl-3-oxo-2-phenyl-2,3-dihydro-1H-pyrazol-4-yl}-3,3-dimethylpentanediamide], the midpoint of inhibition against TIP48/TIP49 complex, the IC50, lay at 110 nM. In test [1], this molecule had a GI50 of 270 nM.
The matching figures for `CCOc1ncc(Cl)cc1C(=O)NCC(C)(C)CC(=O)Nc1c(C)n(CCN2CCOCC2)n(-c2ccccc2)c1=O` [Example 142, 5-Chloro-N-(2,2-dimethyl-4-{[5-methyl-1-(2-morpholinoethyl)-3-oxo-2-phenyl-2,3-dihydro-1H-pyrazol-4-yl]amino}-4-oxobutyl)-2-ethoxypyridine-3-carboxamide]: 61 nM and 180 nM.
Molecule `CCc1nc2c(C(=O)NCC(C)(C)CC(=O)Nc3c(C)n(C)n(-c4ccccc4)c3=O)cc(Cl)cc2o1` [Example 111, 6-Chloro-N-{4-[(1,5-dimethyl-3-oxo-2-phenyl-2,3-dihydro-1H-pyrazol-4-yl)amino]-2,2-dimethyl-4-oxobutyl}-2-ethyl-1,3-benzoxazole-4-carboxamide] showed an IC50 against TIP48/TIP49 complex of 44 nM. The molecule also gave a GI50 in test [1] of 90 nM.
As for `CCOc1ccc(Cl)cc1C(=O)NCC(C)(C)CC(=O)Nc1c(COc2cccnc2)n(C)n(-c2ccccc2)c1=O` [Example 135, 5-Chloro-N-(2,2-dimethyl-4-{[1-methyl-3-oxo-2-phenyl-5-(3-pyridyloxymethyl)pyrazol-4-yl]amino}-4-oxobutyl)-2-ethoxybenzamide], the half-maximal inhibitory concentration (IC50) against TIP48/TIP49 complex came to 100 nM. For the same molecule, the GI50 in test [1] worked out at 120 nM.
Consider `COc1ccc(Cl)cc1C(=O)NCC(C)(C)CC(=O)Nc1c(COC2CN(C)C2)n(C)n(-c2ccccc2)c1=O` [Example 134], for which the IC50 at TIP48/TIP49 complex is 220 nM. This molecule also came in with a GI50 in test [1] of 800 nM.
The matching figures for `CCOc1ccc(Cl)cc1C(=O)NCC(C)(C)CC(=O)Nc1c(C)n(C)n(-c2cccc(C)n2)c1=O` [Example 152, 5-Chloro-N-(4-{[1,5-dimethyl-2-(6-methyl-2-pyridyl)-3-oxopyrazol-4-yl]amino}-2,2-dimethyl-4-oxobutyl)-2-ethoxybenzamide]: 57 nM and 81 nM.
The matching figures for `CCOc1ncc(Cl)cc1C(=O)NCC(C)(C)CC(=O)Nc1c(COC)n(C)n(-c2ccccc2)c1=O` [Example 117, 5-Chloro-2-ethoxy-N-(4-{[5-(methoxymethyl)-1-methyl-3-oxo-2-phenyl-2,3-dihydro-1H-pyrazol-4-yl]amino}-2,2-dimethyl-4-oxobutyl)pyridine-3-carboxamide]: 41 nM and 110 nM.
The matching figures for `Cc1c(NC(=O)CC(C)(C)CNC(=O)c2cc(Cl)cc3c2OC(C)C3)c(=O)n(-c2ccccc2)n1C` (centres unmarked) [Example 105, 5-Chloro-N-{4-[(1,5-dimethyl-3-oxo-2-phenyl-2,3-dihydro-1H-pyrazol-4-yl)amino]-2,2-dimethyl-4-oxobutyl}-2-methyl-2,3-dihydrobenzofuran-7-carboxamide]: 26 nM and 74 nM.
Molecule `COc1ccc(Cl)cc1C(=O)NCC(C)(C)CC(=O)Nc1c(CN(C)C)n(C)n(-c2ccccc2)c1=O` [Example 5, 5-Chloro-N-[4-({5-[(dimethylamino)methyl]-1-methyl-3-oxo-2-phenyl-2,3-dihydro-1H-pyrazol-4-yl}amino)-2,2-dimethyl-4-oxobutyl]-2-methoxybenzamide] had an IC50 on TIP48/TIP49 complex of 170 nM. Moreover, it took 180 nM to inhibit growth in test [1] by half (GI50).
The matching figures for `COc1ccc(Cl)cc1C(=O)NCC(C)(C)CC(=O)Nc1c(CCN(C)C)n(C)n(-c2ccccc2)c1=O` [Example 22, 5-Chloro-N-[4-({5-[2-(dimethylamino)ethyl]-1-methyl-3-oxo-2-phenyl-2,3-dihydro-1H-pyrazol-4-yl}amino)-2,2-dimethyl-4-oxobutyl]-2-methoxybenzamide]: 110 nM and 460 nM.
In the case of `CCOc1ccc(Cl)cc1C(=O)NCC(C)(C)CC(=O)Nc1c(CC(=O)OC)n(C)n(-c2ccccc2)c1=O` [Example 131, Methyl 2-[4-({4-[(5-chloro-2-ethoxybenzoyl)amino]-3,3-dimethylbutanoyl}amino)-2-methyl-5-oxo-1-phenyl-2,3-dihydro-1H-pyrazol-3-yl]acetate], the IC50 at TIP48/TIP49 complex is 62 nM. In test [2], this molecule came in with a GI50 of 130 nM.
At TIP48/TIP49 complex, `COCc1cc2cc(Cl)cc(C(=O)NCC(C)(C)CC(=O)Nc3c(CCN(C)C)n(C)n(-c4ccccc4)c3=O)c2o1` [Example 15, 5-Chloro-N-[4-({5-[2-(dimethylamino)ethyl]-1-methyl-3-oxo-2-phenyl-2,3-dihydro-1H-pyrazol-4-yl}amino)-2,2-dimethyl-4-oxobutyl]-2-(methoxymethyl)benzofuran-7-carboxamide] returned an IC50 of 76 nM. This molecule returned a GI50 in test [2] of 570 nM.
The matching figures for `CCOc1ncc(Br)cc1C(=O)NCC(C)(C)CC(=O)Nc1c(CC(C)(C)NC)n(C)n(-c2ccccc2)c1=O` [Example 60, 5-Bromo-N-[2,2-dimethyl-4-({1-methyl-5-[2-methyl-2-(methylamino)propyl]-3-oxo-2-phenyl-2,3-dihydro-1H-pyrazol-4-yl}amino)-4-oxobutyl]-2-ethoxypyridine-3-carboxamide]: 94 nM and 370 nM.
